Laboratory results: ChEMBL document CHEMBL1201862, “PubChem BioAssay data set” (2004)
Activity calls are given as the source filed them.

Assays:
Protein Tat = biological target: T1, Protein Tat (Human immunodeficiency virus type 1 group M subtype B (isolate HXB2)(HIV-1), UniProt P04608); assay type: functional;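 note: tat binding to TAR RNA read out by fluorescence polarization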
T1 sequence (P04608 whole entry): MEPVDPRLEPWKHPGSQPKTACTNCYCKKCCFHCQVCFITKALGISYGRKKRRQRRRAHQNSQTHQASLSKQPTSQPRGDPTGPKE

[1] = HPDE-C7 pancreatic duct cell viability loss – fluorescence, HTS (AID 430); assay type: functional, cell-based; details: Homo sapiens
[2] = viability loss of HPDE-C7K cells – cell-based, fluorescence, HTS, primary screen (AID 431); assay type: functional; details: Homo sapiens
[3] = biological target: T2, Heat shock factor protein 1 (Mus musculus, UniProt P38532); experiment: enhancement of HSF1-driven luciferase signal – cell-based, NIH3T3, luminescence, dose retest, confirmation (AID 435004); assay type: functional;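 note: stress induced by proteasome inhibitor MG132 added 30 min after compound; luciferase reporter driven by HSF1 response element in NIH3T3 cells; actives raise luminescence as potentiators of the MG132 stress response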
T2 sequence (P38532 whole entry): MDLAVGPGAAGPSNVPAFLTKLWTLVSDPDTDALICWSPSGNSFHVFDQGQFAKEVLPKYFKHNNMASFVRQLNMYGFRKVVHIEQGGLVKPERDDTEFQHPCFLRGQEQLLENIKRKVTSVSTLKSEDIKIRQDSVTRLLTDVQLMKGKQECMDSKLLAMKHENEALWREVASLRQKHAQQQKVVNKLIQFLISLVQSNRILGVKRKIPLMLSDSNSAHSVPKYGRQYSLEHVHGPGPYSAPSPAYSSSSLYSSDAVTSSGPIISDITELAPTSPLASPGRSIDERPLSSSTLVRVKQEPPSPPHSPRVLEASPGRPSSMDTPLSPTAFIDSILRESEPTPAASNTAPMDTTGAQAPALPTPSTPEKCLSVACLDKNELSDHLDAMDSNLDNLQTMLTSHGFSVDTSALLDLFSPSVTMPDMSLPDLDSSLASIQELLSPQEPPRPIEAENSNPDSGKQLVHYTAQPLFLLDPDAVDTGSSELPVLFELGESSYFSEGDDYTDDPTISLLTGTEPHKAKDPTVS

[4] = biological target: T3, Replicative DNA helicase DnaB (Mycobacterium tuberculosis, UniProt P9WMR3); experiment: DnaB intein splicing inhibitors, dose response, biochemical, cell-free fluorescence (AID 449749); assay type: functional
T3 sequence (P9WMR3 whole entry): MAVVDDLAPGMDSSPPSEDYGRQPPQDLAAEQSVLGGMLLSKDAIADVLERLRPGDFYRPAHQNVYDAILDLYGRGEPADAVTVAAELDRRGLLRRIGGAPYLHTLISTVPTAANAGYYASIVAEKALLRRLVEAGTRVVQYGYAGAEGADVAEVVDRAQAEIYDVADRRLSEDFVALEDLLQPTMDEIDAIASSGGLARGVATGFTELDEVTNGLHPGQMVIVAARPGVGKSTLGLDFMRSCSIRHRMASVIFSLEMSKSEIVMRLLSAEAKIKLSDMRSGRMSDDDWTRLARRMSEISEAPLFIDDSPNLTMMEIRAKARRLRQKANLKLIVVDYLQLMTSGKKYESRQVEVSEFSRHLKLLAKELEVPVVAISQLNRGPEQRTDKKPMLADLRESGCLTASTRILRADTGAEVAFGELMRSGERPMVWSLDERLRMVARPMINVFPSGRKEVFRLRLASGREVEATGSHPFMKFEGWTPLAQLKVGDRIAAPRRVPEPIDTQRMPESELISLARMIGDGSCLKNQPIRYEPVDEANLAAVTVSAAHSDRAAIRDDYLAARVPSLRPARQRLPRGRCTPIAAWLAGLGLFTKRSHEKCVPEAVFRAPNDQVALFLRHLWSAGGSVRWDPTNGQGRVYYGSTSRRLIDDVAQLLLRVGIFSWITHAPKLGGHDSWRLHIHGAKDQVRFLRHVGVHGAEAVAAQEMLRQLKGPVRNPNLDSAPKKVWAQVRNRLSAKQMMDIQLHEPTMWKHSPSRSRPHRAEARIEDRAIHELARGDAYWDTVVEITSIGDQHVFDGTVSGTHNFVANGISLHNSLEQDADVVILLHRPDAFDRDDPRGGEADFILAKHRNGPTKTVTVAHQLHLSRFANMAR

Protein RecA = biological target: T4, Protein RecA (Mycobacterium tuberculosis, UniProt P9WHJ3); experiment: Fluorescence Cell-Free Homogeneous Dose Retest to Identify Inhibitors of RecA-Intein Splicing Activity. [Related pubchem assays (depositor defined):AID2097, AID2223, AID489010, AID492950]; assay type: functional
T4 sequence (P9WHJ3 whole entry): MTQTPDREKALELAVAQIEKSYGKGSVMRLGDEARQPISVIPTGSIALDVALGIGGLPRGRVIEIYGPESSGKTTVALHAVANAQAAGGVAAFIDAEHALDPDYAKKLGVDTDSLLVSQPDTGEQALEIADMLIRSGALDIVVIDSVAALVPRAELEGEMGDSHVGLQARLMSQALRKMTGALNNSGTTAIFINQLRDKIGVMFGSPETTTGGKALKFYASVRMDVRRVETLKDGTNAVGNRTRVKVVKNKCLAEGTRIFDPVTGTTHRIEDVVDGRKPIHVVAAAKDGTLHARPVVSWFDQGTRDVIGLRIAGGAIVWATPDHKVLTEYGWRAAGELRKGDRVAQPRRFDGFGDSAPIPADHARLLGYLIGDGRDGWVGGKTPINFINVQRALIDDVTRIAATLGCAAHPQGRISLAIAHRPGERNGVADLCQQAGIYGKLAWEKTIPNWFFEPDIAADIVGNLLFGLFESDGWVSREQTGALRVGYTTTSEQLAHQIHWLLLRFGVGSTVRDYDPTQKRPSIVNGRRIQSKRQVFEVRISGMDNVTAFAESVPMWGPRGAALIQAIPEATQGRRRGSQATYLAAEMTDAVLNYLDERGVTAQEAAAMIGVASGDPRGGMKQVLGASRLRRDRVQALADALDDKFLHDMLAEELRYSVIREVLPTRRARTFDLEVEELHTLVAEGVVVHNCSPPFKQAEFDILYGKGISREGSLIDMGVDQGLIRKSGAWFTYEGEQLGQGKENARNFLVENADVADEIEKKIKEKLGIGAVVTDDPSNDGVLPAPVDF

[5] = HIV-1 Vif–A3G interaction blockers – biochemical, TR-FRET, GST-Vif 1-94, biotin-A3G peptide, dose response retest, primary screen (AID 1117319); assay type: functional;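 note: TR-FRET signal of purified GST-Vif binding a biotinylated A3G peptide; inhibitors lower the FRET signal by blocking Vif and A3G binding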

Compound: O=C(Nc1ccccc1C(=O)NC(Cc1c[nH]c2ccccc12)C(=O)O)c1ccco1 (stereo not drawn)
- IC50 (Protein Tat): > 100 µM (active)

Compound: CC(C)(C)NC(=O)CSc1ncnc2c1nnn2Cc1ccccc1Cl
- EC50 [1]: 11.8 µM (active)
- EC50 [2]: 14.1 µM (active)
- EC50 [3]: 13.3 µM (active)
- AC50 [4]: 6.8 µM (active)
- EC50 (Protein RecA): 8.37 µM (active)

Compound: Cc1ccn2cc(CNS(=O)(=O)c3ccc(Cl)s3)nc2c1
- IC50 (Protein Tat): > 100 µM (active)
- IC50 [5]: > 100 µM (active)
